Measurements published in US9763961B2, “Compositions that modulate the activity of estrogen receptors and estrogen-related receptors and methods for use” (CITY OF HOPE, priority 2005, dated 2017).

Assays:
[1] = molecular target: T1, human ERRα-1 (Homo sapiens, UniProt P11474); assay: Transient transfection luciferase assay, full length human ERRα with SF1-SV40-Luc reporter in HeLa cells; type: cell-based; details: HeLa cells
T1 construct: expressed in transfected cells; host or cells: HeLa
T1 sequence (P11474 1-423): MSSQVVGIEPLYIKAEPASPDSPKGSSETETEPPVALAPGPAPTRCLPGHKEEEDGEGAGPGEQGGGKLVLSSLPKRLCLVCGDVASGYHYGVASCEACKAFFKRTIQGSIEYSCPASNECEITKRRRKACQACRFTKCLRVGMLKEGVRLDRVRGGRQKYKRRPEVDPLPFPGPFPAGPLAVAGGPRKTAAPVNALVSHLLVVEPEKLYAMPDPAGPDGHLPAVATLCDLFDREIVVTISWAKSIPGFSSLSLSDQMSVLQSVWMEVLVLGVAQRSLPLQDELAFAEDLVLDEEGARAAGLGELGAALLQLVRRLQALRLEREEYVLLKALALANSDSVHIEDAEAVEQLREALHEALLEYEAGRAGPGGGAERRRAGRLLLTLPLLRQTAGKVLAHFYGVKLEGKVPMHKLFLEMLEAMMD
Experimental: HeLa cells were cultured in MEM Earle's salts medium supplemented with 5% charcoal/dextran-treated fetal bovine serum. Cells were then divided and cultured in 6-well plates until 80% confluence was achieved. The cells were next transfected with 4 μg Lipofectin. An equal amount of total DNA was used in all transfections by including appropriate amounts of the empty vector, pSG5, in addition to specific amounts of pSG5-ERRα and luciferase reporter plasmids (ERRE (ERRα recognizes an ERE half site)-containing reporter and aromatase promoter I.3-containing reporter). Following an overnight incubation, the medium containing Lipofectin and DNA was removed, and the cells cultured in a growth medium containing 5% charcoal/dextran-treated fetal bovine serum with or without ligands. After a 24-hour incubation, the cells was harvested from the plates by scraping, and the luciferase activities in the cell lysates (with the same amounts of protein) was measured according to the manufacturer's instructions (Promega). All experiments were performed in triplicate.
(§1) To evaluate the functional significance of the interaction of chalcones with ERRα, we incubated these compounds with HeLa cells which were transiently transfected with human ERRα expression plasmid and a luciferase reporter plasmid containing SF1 binding site. […] In order to confirm the results above, HeLa cells were transiently transfected with GAL4-human ERRα LBD fusion expression plasmid and a luciferase reporter plasmid containing GAL4 binding site. […] Most of the compounds, however, have similar IC50 value, and have a similar potency.
Referring to FIG. 1, HeLa cells were cotransfected with pSG5-ERRα (0.5 μg) and luciferase reporter plasmid containing SF1 binding site and SV40 promoter (0.25 μg). The transfected cells were incubated with Compound No. 1-9 for 24 h. After cells were washed with 1× PBS, luciferase activity was measured. Values represent the mean±SD.

[2] = molecular target: T2, GAL4-human ERRα LBD fusion (Homo sapiens, UniProt P11474); assay: Transient transfection luciferase assay, GAL4-human ERRα LBD fusion with Gal4-TK-Luc reporter in HeLa cells; type: cell-based; details: pM-ERRα LBD, 24 h, mean ± SD
T2 construct: GAL4-human ERRα LBD fusion expression plasmid; expressed in transfected cells; host or cells: HeLa
T2 sequence (P11474 193-421 limits assumed): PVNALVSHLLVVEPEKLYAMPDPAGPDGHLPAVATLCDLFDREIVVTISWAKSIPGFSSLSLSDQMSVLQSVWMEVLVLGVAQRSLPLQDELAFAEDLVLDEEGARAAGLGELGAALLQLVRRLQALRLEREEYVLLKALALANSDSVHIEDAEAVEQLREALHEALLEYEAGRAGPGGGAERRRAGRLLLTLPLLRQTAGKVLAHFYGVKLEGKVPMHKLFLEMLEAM
Experimental: Referring to FIG. 2, we have also prepared GAL4-ERRα expression plasmid and luciferase reporter plasmids with GAL4 response element. This is a more sensitive assay method than that using pSG5-ERRα and ERE luciferase reporter plasmids.
as §1
Referring to FIG. 2, HeLa cells were cotransfected with pM-ERRα LBD (0.5 μg) and luciferase reporter plasmid containing GAL4 binding site and TK promoter (0.25 μg). The transfected cells were incubated with Compound No. 1-9 for 24 h. After cells were washed with 1× PBS, luciferase activity was measured. Values represent the mean±SD.

[3] = molecular target: T3, ERRβ (Homo sapiens, UniProt O95718); assay: Transient transfection luciferase assay with pSG5-ERRb and SF1-SV40 reporter in HeLa cells; type: cell-based
T3 construct: expressed in transfected cells; host or cells: HeLa
T3 sequence (O95718 1-433): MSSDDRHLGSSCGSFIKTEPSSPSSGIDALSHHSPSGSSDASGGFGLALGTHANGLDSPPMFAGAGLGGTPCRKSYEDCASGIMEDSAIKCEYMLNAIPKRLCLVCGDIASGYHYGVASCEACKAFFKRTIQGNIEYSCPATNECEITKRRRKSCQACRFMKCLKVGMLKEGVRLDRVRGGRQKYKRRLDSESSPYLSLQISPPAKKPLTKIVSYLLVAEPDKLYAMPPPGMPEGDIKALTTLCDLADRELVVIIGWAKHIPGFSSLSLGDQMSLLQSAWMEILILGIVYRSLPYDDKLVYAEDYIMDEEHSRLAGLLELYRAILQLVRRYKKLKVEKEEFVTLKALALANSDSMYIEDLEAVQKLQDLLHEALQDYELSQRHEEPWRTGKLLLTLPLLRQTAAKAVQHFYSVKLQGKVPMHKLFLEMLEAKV

[4] = molecular target: T4, ERRγ (Homo sapiens, UniProt P62508); assay: Transient transfection luciferase assay with pSG5-ERRg and SF1-SV40 reporter in HeLa cells; type: cell-based
T4 construct: expressed in transfected cells; host or cells: HeLa
T4 sequence (P62508 1-458): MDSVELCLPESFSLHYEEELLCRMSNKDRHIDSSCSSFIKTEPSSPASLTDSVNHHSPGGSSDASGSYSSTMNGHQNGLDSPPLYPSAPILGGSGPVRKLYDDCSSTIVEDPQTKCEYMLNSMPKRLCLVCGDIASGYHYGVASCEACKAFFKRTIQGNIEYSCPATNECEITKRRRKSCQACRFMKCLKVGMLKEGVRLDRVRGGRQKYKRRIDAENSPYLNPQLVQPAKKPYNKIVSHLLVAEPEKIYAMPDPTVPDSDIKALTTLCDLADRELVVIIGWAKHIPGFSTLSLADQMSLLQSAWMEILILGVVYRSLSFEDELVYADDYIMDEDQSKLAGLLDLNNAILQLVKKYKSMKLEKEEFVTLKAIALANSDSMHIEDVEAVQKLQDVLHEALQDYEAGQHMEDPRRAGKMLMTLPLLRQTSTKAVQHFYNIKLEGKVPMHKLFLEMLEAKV

[5] = molecular target: T5, ERα (Homo sapiens, UniProt P03372); assay: Transient transfection luciferase assay with pSG5-ERa and ERE-SV40 reporter in HeLa cells, with 100 pM estradiol; type: cell-based
T5 construct: expressed in transfected cells; host or cells: HeLa
T5 sequence (P03372 1-595): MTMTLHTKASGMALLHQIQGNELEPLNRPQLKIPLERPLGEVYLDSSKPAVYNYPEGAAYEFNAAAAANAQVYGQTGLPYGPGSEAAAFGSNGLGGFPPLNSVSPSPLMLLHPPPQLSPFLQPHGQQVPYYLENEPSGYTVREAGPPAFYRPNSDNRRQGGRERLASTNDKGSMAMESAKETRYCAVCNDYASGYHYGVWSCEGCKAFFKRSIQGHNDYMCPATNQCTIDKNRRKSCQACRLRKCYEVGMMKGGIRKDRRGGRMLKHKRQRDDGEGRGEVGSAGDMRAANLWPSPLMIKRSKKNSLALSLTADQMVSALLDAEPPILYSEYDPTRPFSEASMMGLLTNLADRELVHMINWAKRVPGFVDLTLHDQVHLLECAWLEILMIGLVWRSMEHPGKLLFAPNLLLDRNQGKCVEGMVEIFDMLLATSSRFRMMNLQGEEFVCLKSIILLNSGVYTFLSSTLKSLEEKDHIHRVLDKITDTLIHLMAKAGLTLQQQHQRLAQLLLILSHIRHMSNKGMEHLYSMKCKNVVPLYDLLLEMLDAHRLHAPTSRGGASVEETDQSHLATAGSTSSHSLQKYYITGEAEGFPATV

[6] = molecular target: T6, ERβ (Homo sapiens, UniProt Q92731); assay: Transient transfection luciferase assay with pCI-ERb and ERE-SV40 reporter in HeLa cells, with 100 pM estradiol; type: cell-based
T6 construct: expressed in transfected cells; host or cells: HeLa
T6 sequence (Q92731 whole entry, species assumed): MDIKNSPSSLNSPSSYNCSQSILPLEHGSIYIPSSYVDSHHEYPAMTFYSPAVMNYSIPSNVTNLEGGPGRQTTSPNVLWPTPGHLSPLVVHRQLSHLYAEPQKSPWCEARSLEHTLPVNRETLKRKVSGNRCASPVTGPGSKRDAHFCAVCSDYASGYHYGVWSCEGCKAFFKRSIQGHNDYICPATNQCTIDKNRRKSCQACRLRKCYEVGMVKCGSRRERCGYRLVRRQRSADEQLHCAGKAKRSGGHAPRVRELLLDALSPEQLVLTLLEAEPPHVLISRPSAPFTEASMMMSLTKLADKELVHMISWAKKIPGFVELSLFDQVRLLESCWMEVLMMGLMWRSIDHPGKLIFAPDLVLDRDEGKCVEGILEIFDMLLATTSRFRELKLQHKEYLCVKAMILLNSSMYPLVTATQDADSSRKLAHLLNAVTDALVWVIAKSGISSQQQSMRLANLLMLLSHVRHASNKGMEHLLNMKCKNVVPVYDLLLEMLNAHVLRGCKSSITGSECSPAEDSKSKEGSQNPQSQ

[7] = molecular target: T3, ERRβ; assay: Relative luciferase activity for ERRβ (FIG. 8); type: cell-based
[8] = molecular target: T4, ERRγ; assay: Relative luciferase activity for ERRγ (FIG. 8); type: cell-based
[9] = molecular target: T7, ERRα (Homo sapiens, UniProt P11474); assay: Relative luciferase activity for ERRα (FIG. 8); type: cell-based; set-up: endogenous in cells; host or cells: SK-BR-3
T7 sequence (P11474 1-423): T1 sequence (P11474 1-423)

[10] = system: ER; details: cited from earlier work
[11] = HeLa cells, 24 h, average of at least two experiments
[12] = HeLa cells, in the presence of 100 pM of estradiol, 24 h

## COc1ccc(C(=O)/C=C/c2ccccc2OC)c(O)c1 [7-2]
[1]; SF1 binding site reporter, FIG. 1
  Antagonism of constitutive activity of ERRα (in words): antagonists of ERRα
[1]; pSG5-ERRα, 24 h, mean ± SD
  IC50: 8.3 ± 0.4 µM
[2]
  IC50: 2e+06 ± 700000 pM
[3]; [11]
  IC50: 6.7 µM
[3]; transient transfection
  Antagonistic properties on ERRb (in words): showed antagonistic properties
[4]; [11]
  IC50: 8 µM
[4]; transient transfection
  Antagonistic properties on ERRg (in words): showed antagonistic properties
[5]; [12]
  IC50: 7.8 µM
[5]; transient transfection
  Antagonistic properties on ERa (in words): showed antagonistic properties
[6]; [12]
  IC50: 15 µM
[6]; transient transfection
  Antagonistic properties on ERb (in words): showed antagonistic properties

## O=C(/C=C/c1ccc(O)cc1)c1ccc(O)cc1O [Compound No. 3-15, 4,2′,4′-trihydroxychalcone]
[7]
  Agonist activity on ERRβ: agonist of all three forms of ERRs
[8]
  Agonist activity on ERRγ: agonist of all three forms of ERRs
[9]
  Agonist activity on ERRα: agonist of all three forms of ERRs

## CC/C(=C(/c1ccc(O)cc1)c1ccc(OCCN(C)C)cc1)c1ccccc1 [E-4-OHT]
[10]
  Affinity for ER relative to Z-4-OHT: about 5%
